Data set [1] relates to Chang (normal liver) cells. Description: cells. In kind it is cell-based. The following applies: 72 h, WST-1, triplicate. On the procedure: (§1) In vitro anticancer assays were performed in triplicate for the determination of mean values. The human cervical carcinoma SiHa, murine melanoma B16F10, chronic myelogenous leukemia (CML) K562, and Chang cell lines were cultured in minimum essential medium of Eagle at 37 °C in a […] atmosphere with 10% fetal bovine serum, 2 mM L-glutamine and 1% penicillin/streptomycin. Cells were trypsinized and seeded at a density of 5 × 10^4 cells/mL in a 96-well plate and incubated at 37 °C, […] atmosphere for 24 h. Thereafter the cells were treated with azetidin-2-one derivatives (dissolved in DMSO) at various concentrations between 312 nM–10 μM, and re-incubated for further 72 h. Wells containing the equal volume of the vehicle DMSO (1% v/v) were used as background (negative control). The culture medium was then removed and the cells washed with 100 μL phosphate buffered saline (PBS); then 10 μL WST-1 (Roche, USA) was added. Cells were incubated for 2 h in absence of light at 37°C, and absorbance was read subsequently. […] Afterwards, these values were used to assess half maximal inhibitory concentration (IC50) using Graph-Pad Prism software.
For orientation: Formazan colour is commonly taken as a measure of viable cells.

Data set [2] deals with B16F10 (murine melanoma) cells. Description: Cytotoxic activity, WST-1 assay, B16F10. The format is cell-based. On the procedure:
as §1

The subject of data set [3] is SiHa (human cervical carcinoma) cells. Description: Cytotoxic activity, WST-1 assay, SiHa. The format is cell-based. On the procedure:
as §1

The subject of data set [4] is K562 (human immortalized myelogenous leukemia) cells. Description: Cytotoxic activity, WST-1 assay, K562. In kind it is cell-based. On the procedure: as §1
Another data set deals with Chang cells. Description: Hematoxylin/Eosin staining of Chang cells. The format is cell-based. As to conditions: 24 h, 6C 1 μM, taxol. The procedure:
(§2) The cytotoxic effect of the compound 6C in SiHa and Chang cells has been studied (Figure 2).
(§3) Cells (10 × 10^4) were grown on coated poly-lysine coverslips which were placed in 6-well microplates overnight and then incubated for 24 h in the presence of compound 6C or taxol, subsequently stained with hematoxylin and eosin. Coverslips were then observed by Light microscopy of bright field (40X).

The next data set deals with SiHa cells. Description: Hematoxylin/Eosin staining of SiHa cells. As to conditions: 24 h, 6C 1 μM, taxol. The format is cell-based, human. On the procedure:
as §2, §3

Data set [5] concerns caspase-3 activation in B16F10 cells. Description: Apoptotic activity, caspase-3 assay. The following applies: 24 h, podophyllotoxin as positive control. The format is cell-based, murine. The procedure:
The mechanism of cell death was identified as apoptosis. It was validated with the compound 6C. Enzyme activity associated with the induction of apoptosis was determined by caspase-3 assay (Invitrogen, USA) as described in the protocol. A concentration of approximately 3 × 10^6 cells/mL (B16F10) was taken and incubated for 24 h at 37 °C in 5% CO2 environment. Podophyllotoxin (apoptosis inducing agent) was used as positive control. After incubation for 24 h the cells were re-suspended and 50 μL of cell lysis reagent was added, then cells were incubated for 10 min in ice bath and centrifuged. The supernatant (cytosol extract) was transferred into a new effendrof. Cytosol extract was diluted with cell lysis reagent to a concentration of 2 μg/μL, in a total volume of 50 μL. Then 50 μL of 2X reaction buffer and 5 μL of tetrapeptide-p-nitroaniline (DEVD-pNA) were added. It was incubated at 37 °C for 2 h (in dark), and finally the optical density at 405 nm was measured with an ELISA Reader. Caspase-3 activity was calculated that confirmed apoptosis as the mechanism of cell death.

Values joined by “and” are separate entries in the source; they are usually repeats but may differ in a detail not shown here. Equal values may be shown once.

As usually defined, the IC50 is the concentration needed to halve the response being measured. `COc1ccc([C@@H]2[C@H](N)C(=O)N2c2ccc(OC)cc2)cc1` (racemic) [1C, (±)-Cis-3-amino-1,4-bis(4-methoxyphenyl) azetidin-2-one]: the IC50 in data set [1] was 6.21 ± 0.5 µM; in data set [2] (72 h, WST-1, triplicate), 3.33 ± 0.3 µM; in data set [3] (72 h, WST-1, triplicate) it was 4.21 ± 0.4 µM; in data set [4] (72 h, WST-1, triplicate), over 10 µM.
For `COc1ccc([C@H]2[C@H](N)C(=O)N2c2ccc(OC)cc2)cc1` (racemic) [1T, (±)-Trans-3-amino-1,4-bis(4-methoxyphenyl) azetidin-2-one] the same measures were 7.91 ± 0.4 µM, 5.16 ± 0.5 µM, 7.17 ± 0.3 µM and over 10 µM.
Take `COc1ccc([C@@H]2[C@H](N)C(=O)N2c2ccccc2)cc1` (racemic) [2C, (±)-Cis-3-amino-4-(4-methoxyphenyl)-1-phenyl-azetidin-2-one]: the IC50 in data set [1] was 8.03 ± 0.5 µM; in data set [3] (72 h, WST-1, triplicate), 6.2 ± 0.6 µM; in data set [4] (72 h, WST-1, triplicate), over 10 µM.
`COc1ccc([C@H]2[C@H](N)C(=O)N2c2ccccc2)cc1` (racemic) [2T, (±)-Trans-3-amino-4-(4-methoxyphenyl)-1-phenyl-azetidin-2-one]: the IC50 in data set [1] was over 10 µM; in data set [2] (72 h, WST-1, triplicate), 7.63 ± 0.4 µM; in data set [3] (72 h, WST-1, triplicate), 7.14 ± 0.5 µM; in data set [4] (72 h, WST-1, triplicate), over 10 µM.
In the case of `COc1ccc(N2C(=O)[C@@H](N)[C@H]2c2ccc(OC)c(OC)c2)cc1` (racemic) [3C, (±)-Cis-3-amino-4-(3,4-dimethoxyphenyl)-1-(4-methoxyphenyl) azetidin-2-one], the IC50 in data set [1] is 9.32 ± 0.6 µM; in data set [2] (72 h, WST-1, triplicate) it was < 5 µM and 3.91 µM; in data set [3] (72 h, WST-1, triplicate), 5.1 ± 0.4 µM; in data set [4] (72 h, WST-1, triplicate), 6.14 ± 0.4 µM.
Consider `COc1ccc(N2C(=O)[C@@H](N)[C@@H]2c2ccc(OC)c(OC)c2)cc1` (racemic) [3T, (±)-Trans-3-amino-4-(3,4-dimethoxyphenyl)-1-(4-methoxyphenyl) azetidin-2-one], for which the 50% inhibitory concentration (IC50) is over 10 µM in data set [1]; over 10 µM in data set [2] (72 h, WST-1, triplicate); over 10 µM in data set [3] (72 h, WST-1, triplicate); over 10 µM in data set [4] (72 h, WST-1, triplicate).
`COc1ccc(N2C(=O)[C@@H](N)[C@H]2c2ccccc2[N+](=O)[O-])cc1` (racemic) [4C, (±)-Cis-3-amino-1-(4-methoxyphenyl)-4-(2-nitrophenyl) azetidin-2-one]: the 50% inhibitory concentration (IC50) in data set [1] is 7.37 ± 0.4 µM; in data set [2] (72 h, WST-1, triplicate), 5.91 ± 0.6 µM; in data set [3] (72 h, WST-1, triplicate), 7.28 ± 0.5 µM; in data set [4] (72 h, WST-1, triplicate) it was over 10 µM.
`COc1ccc(N2C(=O)[C@@H](N)[C@@H]2c2ccccc2[N+](=O)[O-])cc1` (racemic) [4T, (±)-Trans-3-amino-1-(4-methoxyphenyl)-4-(2-nitrophenyl) azetidin-2-one]: the IC50 in data set [1] is over 10 µM; in data set [2] (72 h, WST-1, triplicate), over 10 µM; in data set [3] (72 h, WST-1, triplicate) it was 8.12 ± 0.4 µM; in data set [4] (72 h, WST-1, triplicate), over 10 µM.
In the case of `COc1ccc(N2C(=O)[C@@H](N)[C@H]2c2ccc(C)cc2)cc1` (racemic) [5C, (±)-Cis-3-amino-1-(4-methoxyphenyl)-4-(p-tolyl) azetidin-2-one], the IC50 in data set [1] was 7.01 ± 0.1 µM; in data set [3] (72 h, WST-1, triplicate) it was 4.03 ± 0.5 µM; in data set [4] (72 h, WST-1, triplicate), over 10 µM.
`COc1ccc(N2C(=O)[C@@H](N)[C@@H]2c2ccc(C)cc2)cc1` (racemic) [5T, (±)-Trans-3-amino-1-(4-methoxyphenyl)-4-(p-tolyl)azetidin-2-one]: the IC50 in data set [1] was over 10 µM; in data set [2] (72 h, WST-1, triplicate), 7.14 ± 0.6 µM; in data set [3] (72 h, WST-1, triplicate), 7.79 ± 0.5 µM; in data set [4] (72 h, WST-1, triplicate), over 10 µM.
Take `Cc1ccc([C@@H]2[C@H](N)C(=O)N2c2ccccc2)cc1` (racemic) [6C, (±)-Cis-3-amino-1-phenyl-4-(p-tolyl) azetidin-2-one]: the IC50 in data set [1] is 6.89 ± 0.3 µM; in data set [2] (72 h, WST-1, triplicate), 0.7 ± 0.1 µM; in data set [3] (72 h, WST-1, triplicate), 2.34 ± 0.2 µM; in data set [4] (72 h, WST-1, triplicate) it was over 10 µM. For the same compound, the “times higher potency than colchicine” value in data set [2] (B16F10 cell lines, compared to colchicine) was “six”. Further, the “Morphological effect, Hematoxylin/Eosin staining” value was “appearance of multiple intracytoplasmic vacuoles” in the data set with Chang cells; “loss of cytoplasm and decrease in the size of nuclei” in the data set on SiHa cells. In data set [5], the “Apoptosis through caspase-3 activation” value is recorded as “demonstrated apoptosis in B16F10 cancer cells through caspase-3 activation”.
For `Cc1ccc([C@H]2[C@H](N)C(=O)N2c2ccccc2)cc1` (racemic) [6T, (±)-Trans-3-amino-1-phenyl-4-(p-tolyl)azetidin-2-one], the half-maximal inhibitory concentration (IC50) in data set [1] is over 10 µM; in data set [2] (72 h, WST-1, triplicate), 5.79 ± 0.4 µM; in data set [3] (72 h, WST-1, triplicate), 4.79 ± 0.6 µM; in data set [4] (72 h, WST-1, triplicate), over 10 µM.
`COc1ccc(N2C(=O)[C@@H](N)[C@H]2c2ccccn2)cc1` (racemic) [7C, (±)-Cis-3-amino-1-(4-methoxyphenyl)-4-(2-pyridyl)azetidin-2-one]: the IC50 in data set [1] is 5.49 ± 0.4 µM; in data set [2] (72 h, WST-1, triplicate) it was over 10 µM; in data set [3] (72 h, WST-1, triplicate) it was 8.43 ± 0.3 µM; in data set [4] (72 h, WST-1, triplicate), 6.86 ± 0.4 µM.
On the same counts, the results for `COc1ccc(N2C(=O)[C@@H](N)[C@@H]2c2ccccn2)cc1` (racemic) [7T, (±)-Trans-3-amino-1-(4-methoxyphenyl)-4-(2-pyridyl)azetidin-2-one] are over 10 µM, over 10 µM, over 10 µM and over 10 µM.
In the case of `CC(=O)O[C@H]1C(=O)[C@@]2(C)[C@H]([C@H](OC(=O)c3ccccc3)[C@]3(O)C[C@H](OC(=O)[C@H](O)[C@@H](NC(=O)c4ccccc4)c4ccccc4)C(C)=C1C3(C)C)[C@]1(OC(C)=O)CO[C@@H]1C[C@@H]2O` [Paclitaxel, reference compound], the IC50 in data set [1] was determined as 0.068 ± 0.02 µM; in data set [2] (Mus musculus, B16-F10, 72 h, WST-1, triplicate), 9.57 ± 0.2 µM; in data set [3] (Homo sapiens, SiHa, value marked * (ng/mL)), 0.364 ± 0.31 µg/mL; in data set [4] (Homo sapiens, K562, value marked * (ng/mL)), 0.0048 ± 0.0004 µg/mL. Moreover, the “Morphological effect, Hematoxylin/Eosin staining” value was “early apoptosis” in the data set on Chang cells and “induced severe cell damage” in the data set with SiHa cells.
Take `CC[C@]1(O)C[C@@H]2CN(CCc3c([nH]c4ccccc34)[C@@](C(=O)OC)(c3cc4c(cc3OC)N(C)[C@H]3[C@@](O)(C(=O)OC)[C@H](OC(C)=O)[C@]5(CC)C=CCN6CC[C@]43[C@@H]65)C2)C1` [Vinblastine, reference compound]: the IC50 in data set [2] (Mus musculus, B16-F10, value marked * (ng/mL)) turned out to be 0.055 ± 0.028 µg/mL; in data set [3] (Homo sapiens, SiHa, 72 h, WST-1, triplicate), 10.9 ± 0.8 µM; in data set [4] (Homo sapiens, K562, 72 h, WST-1, triplicate) it was 0.006 µM.
